Experimental data published in patent publication US20070191393A1, “Macrocyclic anilinopyrimidines with substituted sulphoximine as selective inhibitors of cell cycle kinases” (priority 2006, published 2007).
Blank lines part the entries; values can stand above or below the compound they belong to.

Assays:
Format in all cases: biochemical
CDK2/CycE = target: T1, CDK2/CycE (Homo sapiens, UniProt P24941); test: CDK2/CycE kinase assay; conditions: 0.5 μM ATP, 22° C., 10 min
T1 construct: GST; purchased ProQinase GmbH, Freiburg; host or cells: baculovirus-infected Sf9 insect cells
Method: Recombinant CDK2- and CycE-GST fusion proteins, purified from baculovirus-infected insect cells (Sf9), were purchased from ProQinase GmbH, Freiburg. The histone IIIS used as kinase substrate was purchased from Sigma. CDK2/CycE (50 ng/measurement point) was incubated in the presence of various concentrations of test substances (0 μM, and within the range 0.01-100 μM) in assay buffer [50 mM Tris/HCl pH 8.0, 10 mM MgCl2, 0.1 mM Na ortho-vanadate, 1.0 mM dithiothreitol, 0.5 μM ATP, 10 μg/measurement point histone IIIS, 0.2 μCi/measurement point ^33P-gamma ATP, 0.05% NP40, 1.25% dimethyl sulphoxide] at 22° C. for 10 min. The reaction was stopped by adding EDTA solution (250 mM, pH 8.0, 15 μl/measurement point).
15 μl of each reaction mixture were loaded onto P30 filter strips (from Wallac), and non-incorporated ^33P-ATP was removed by washing the filter strips three times in 0.5% strength phosphoric acid for 10 min each time.
After the filter strips had been dried at 70° C. for 1 hour, the filter strips were covered with scintillator strips (MeltiLex™ A, from Wallac) and baked at 90° C. for 1 hour. The amount of incorporated ^33P (substrate phosphorylation) was determined by scintillation measurement in a gamma radiation counter (Wallac).

Chk1 = target: T2, Chk1 (Homo sapiens, UniProt O14757); test: Chk1 kinase assay; conditions: 10 μM ATP, 22° C., 60 min
T2 construct: made in house; host or cells: Sf9 insect cells
T2 sequence (O14757 1-476): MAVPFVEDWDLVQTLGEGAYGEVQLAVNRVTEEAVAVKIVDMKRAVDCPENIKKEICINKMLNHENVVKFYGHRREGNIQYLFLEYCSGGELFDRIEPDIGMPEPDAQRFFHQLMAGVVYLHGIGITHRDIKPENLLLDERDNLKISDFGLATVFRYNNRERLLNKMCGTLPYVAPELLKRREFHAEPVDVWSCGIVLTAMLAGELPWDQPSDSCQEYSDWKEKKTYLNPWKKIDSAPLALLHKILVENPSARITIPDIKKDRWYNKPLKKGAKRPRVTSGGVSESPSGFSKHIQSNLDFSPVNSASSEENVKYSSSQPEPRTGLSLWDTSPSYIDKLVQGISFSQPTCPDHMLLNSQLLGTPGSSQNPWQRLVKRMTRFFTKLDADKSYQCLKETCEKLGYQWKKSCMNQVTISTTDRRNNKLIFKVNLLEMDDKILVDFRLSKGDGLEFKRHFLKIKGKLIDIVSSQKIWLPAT
Method: Recombinant Chk1 protein was expressed in Sf9 insect cells and then purified. The kinase substrate used was the biotinylated peptide having the amino acid sequence biotin-ALKLVRTPSFVITAK, which was purchased from Biosynthan GmbH in Berlin.
Chk1 [0.11 μg/ml in the test mixture, test volume 5 μl] was incubated in the presence of various concentrations of test substances (0 μM, and 10 measurement points within the range 0.001-20 μM in duplicate) in assay buffer [50 mM HEPES pH 7.5, 10 mM MgCl2, […], 0.1 mM Na ortho-vanadate, 1.0 mM dithiothreitol, 1 tablet/2.5 ml complete protease inhibitor (from Roche), 10 μM ATP, 1.0 μM substrate peptide biotin-ALKLVRTPSFVITAK, 1.0% dimethyl sulphoxide] at 22° C. for 60 min. The reaction was stopped by adding 5 μl of an EDTA/detection solution [100 mM EDTA, 800 mM potassium fluoride, 0.2% BSA, 0.2 μM streptavidin-XLent (from CisBio), 9.6 nM anti-phospho-Akt antibody (from Cell Signalling Technology), 4 nM protein-A-Eu(K) (from CisBio)]. The fluorescence emission at 620 nm and 665 nm after excitation with light of the wavelength 350 nm was measured in a Rubystar HTRF instrument from BMG Labsystems.
(§1) The measured data (ratio of emission 665 divided by emission 620 multiplied by 10 000) were normalized to 0% inhibition (enzyme reaction without inhibitor) and 100% inhibition (all assay components apart from enzyme). The IC50 values were determined by means of a 4-parameter fit using the company's own software.

KDR = target: T3, KDR (Homo sapiens, UniProt P35968); test: KDR kinase assay; conditions: 1 μM ATP, 22° C., 20 min
T3 construct: made in house; host or cells: SF9 insect cells
T3 sequence (P35968 20-1356, species assumed): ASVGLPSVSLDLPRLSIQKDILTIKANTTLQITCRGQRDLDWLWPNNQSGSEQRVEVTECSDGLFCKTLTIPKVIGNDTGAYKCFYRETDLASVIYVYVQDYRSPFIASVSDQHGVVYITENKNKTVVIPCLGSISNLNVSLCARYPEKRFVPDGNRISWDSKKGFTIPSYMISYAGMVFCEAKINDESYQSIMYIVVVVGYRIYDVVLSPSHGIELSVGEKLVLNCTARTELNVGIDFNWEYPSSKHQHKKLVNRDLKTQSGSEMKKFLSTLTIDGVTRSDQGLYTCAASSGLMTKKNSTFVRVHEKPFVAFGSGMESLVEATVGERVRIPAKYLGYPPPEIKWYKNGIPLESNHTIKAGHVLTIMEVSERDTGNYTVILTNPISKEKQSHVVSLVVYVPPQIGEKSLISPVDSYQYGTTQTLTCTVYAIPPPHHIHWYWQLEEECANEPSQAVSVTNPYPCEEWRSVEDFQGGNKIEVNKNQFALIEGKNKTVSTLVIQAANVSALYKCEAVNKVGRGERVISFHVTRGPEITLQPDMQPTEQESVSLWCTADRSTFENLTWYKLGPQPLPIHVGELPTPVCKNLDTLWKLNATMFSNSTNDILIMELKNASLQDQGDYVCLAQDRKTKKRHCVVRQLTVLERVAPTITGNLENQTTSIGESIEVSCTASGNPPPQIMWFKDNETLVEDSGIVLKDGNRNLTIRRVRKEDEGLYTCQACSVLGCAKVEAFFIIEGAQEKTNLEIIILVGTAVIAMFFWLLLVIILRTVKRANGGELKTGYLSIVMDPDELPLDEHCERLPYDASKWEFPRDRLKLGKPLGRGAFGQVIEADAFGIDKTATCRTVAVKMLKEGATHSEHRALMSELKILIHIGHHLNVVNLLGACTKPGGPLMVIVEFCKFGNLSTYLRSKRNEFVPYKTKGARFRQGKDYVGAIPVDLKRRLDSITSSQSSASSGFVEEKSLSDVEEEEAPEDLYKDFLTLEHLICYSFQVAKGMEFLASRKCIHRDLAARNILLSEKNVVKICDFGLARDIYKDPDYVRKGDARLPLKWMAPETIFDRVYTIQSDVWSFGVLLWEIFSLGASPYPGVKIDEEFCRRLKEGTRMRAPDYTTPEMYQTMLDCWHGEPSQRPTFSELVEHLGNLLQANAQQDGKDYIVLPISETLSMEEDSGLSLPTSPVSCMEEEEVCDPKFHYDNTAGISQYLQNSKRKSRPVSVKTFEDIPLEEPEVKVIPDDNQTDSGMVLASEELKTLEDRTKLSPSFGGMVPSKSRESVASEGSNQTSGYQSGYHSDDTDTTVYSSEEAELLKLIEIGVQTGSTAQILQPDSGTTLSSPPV
Method: Recombinant GST-KDR protein was expressed in SF9 insect cells and then purified. The kinase substrate used was the biotinylated peptide biotin-polyGluAlaTyr from Cisbio International.
GST-KDR [test volume 15 μl] was incubated in the presence of various concentrations of test substances (0 μM, and 10 measurement points within the range 0.001-20 μM in duplicate) in assay buffer [50 mM HEPES pH 7.0, 25 mM MgCl2, 5 mM MgCl2, 0.5 mM Na ortho-vanadate, 1 mM dithiothreitol, 10% glycerol, 1 μM ATP, 23.5 mg/L substrate peptide biotin-polyGluAlaTyr, 1% dimethyl sulphoxide, 1× protease inhibitor mix (from Roche)] at 22° C. for 20 min. The reaction was stopped by adding 5 μl of an EDTA/detection solution [50 mM HEPES pH 7.0, 250 mM EDTA, 0.5% BSA, 22 mg/L streptavidin-XL (from CisBio), 1 mg/L PT66-Eu (from PerkinElmer)]. The fluorescence emission at 620 nm and 665 nm after excitation with light of the wavelength 350 nm was measured in a Rubystar HTRF instrument from BMG Labsystems 60 minutes after addition of the EDTA/detection solution.
as §1

Compound: C[Si](C)(C)CCS(=O)(=O)N=S(C)(=O)c1ccc2cc1NCCCCNc1nc(ncc1Br)N2 (racemic) [Example 5, (RS)—S-[1^5-Bromo-2,4,9-triaza-1(2,4)-pyrimidina-3(1,3)-benzenacyclononaphan-3^4-yl]-S-methyl-N-[2-(trimethylsilyl)ethylsulphonyl]sulphoximide]
IC50 (CDK2/CycE): > 1 µM
IC50 (Chk1): > 20 µM
IC50 (KDR): 0.022 µM

Compound: CCCOC(=O)N=S(C)(=O)c1ccc2cc1OCCCCNc1nc(ncc1Br)N2 (racemic) [Example 8, (RS)—S-[1^5-Bromo-4-oxa-2,9-diaza-1(2,4)-pyrimidina-3(1,3)-benzenacyclononaphan-3^4-yl]-S-methyl-N-(propoxycarbonyl)sulphoximide]
IC50 (CDK2/CycE): > 1 µM
IC50 (Chk1): > 20 µM
IC50 (KDR): 0.136 µM

Compound: C[Si](C)(C)CCS(=O)(=O)N=S(C)(=O)c1ccc2cc1OCCCCNc1nc(ncc1Br)N2 (racemic) [Example 9, (RS)—S-[1^5-Bromo-4-oxa-2,9-diaza-1(2,4)-pyrimidina-3(1,3)-benzenacyclononaphan-3^4-yl]-S-methyl-N-[2-(trimethylsilyl)ethylsulphonyl]sulphoximide]
IC50 (CDK2/CycE): > 1 µM
IC50 (Chk1): > 12.5 µM
IC50 (KDR): 0.06 µM

Compound: CCOC(=O)N=S(C)(=O)c1ccc2cc1NCCCCNc1nc(ncc1Br)N2 (single isomer, unassigned) [Example 2]
IC50 (CDK2/CycE): 0.229 µM
IC50 (Chk1): 3.63 µM
IC50 (KDR): 0.198 µM

The remaining lines, values ahead:

IC50 (CDK2/CycE): 0.323 µM
IC50 (Chk1): 4.64 µM
IC50 (KDR): 0.061 µM
Compound: CCOC(=O)N=S(C)(=O)c1ccc2cc1NCCCCNc1nc(ncc1Br)N2 (racemic) [Example 1, (RS)—S-[1^5-Bromo-2,4,9-triaza-1(2,4)-pyrimidina-3(1,3)-benzenacyclononaphan-3^4-yl]-N-(ethoxycarbonyl)-S-methylsulphoximide]

IC50 (CDK2/CycE): 0.319 µM
IC50 (Chk1): 1.85 µM
IC50 (KDR): 0.009 µM
Compound: CCOC(=O)N=S(C)(=O)c1ccc2cc1NCCCCNc1nc(ncc1I)N2 (racemic) [Example 4, (RS)—N-(Ethoxycarbonyl)-S-[1^5-iodo-2,4,9-triaza-1(2,4)-pyrimidina-3(1,3)-benzenacyclononaphan-3^4-yl]-S-methylsulphoximide]

IC50 (CDK2/CycE): 0.071 µM
IC50 (Chk1): 3.77 µM
IC50 (KDR): 0.022 µM
Compound: CCNC(=O)N=S(C)(=O)c1ccc2cc1NCCCCNc1nc(ncc1Br)N2 (racemic) [Example 6, (RS)—S-[1^5-Bromo-2,4,9-triaza-1(2,4)-pyrimidina-3(1,3)-benzenacyclononaphan-3^4-yl]-N-(ethylcarbamoyl)-S-methylsulphoximide]

IC50 (CDK2/CycE): > 1 µM
IC50 (Chk1): > 20 µM
IC50 (KDR): 0.007 µM
Compound: CCCS(=O)(=O)N=S(C)(=O)c1ccc2cc1NCCCCNc1nc(ncc1Br)N2 (racemic) [Example 7, (RS)—S-[1^5-Bromo-2,4,9-triaza-1(2,4)-pyrimidina-3(1,3)-benzenacyclononaphan-3^4-yl]-S-methyl-N-(propylsulphonyl)sulphoximide]

IC50 (CDK2/CycE): 0.99 µM
IC50 (Chk1): 6.84 µM
IC50 (KDR): 0.289 µM
Compound: CCOC(=O)N=S(C)(=O)c1ccc2cc1NCCCCNc1nc(ncc1Br)N2 (single isomer, unassigned) [Example 3]
